Reference: patent publication US20100234238A1, “METHOD FOR PROFILING KINASE INHIBITORS” (Janssen Pharmaceutica N V, priority 2006, published 2010)

Key:
[1] = tested on: 27 cell lines, representing diverse cancer cell types; assay: Inhibition of proliferation of cell lines in vitro (response status); type: cell-based; set-up: key: R: A responder is predicted when minimally 4 peptides have a ratio <0.8; NR = Non-Responder to MTKI; details: MTKI
Protocol: It was tested whether the Pamchip peptide arrays are a useful tool to predict the response of a cell line to the multi-targeted kinase inhibitor, MTKI. MTKI inhibits the proliferation of a range of cell lines in vitro with widely varying IC50's. The lysates prepared from these 27 cell lines, representing diverse cancer cell types, were profiled on the peptide arrays in the absence or presence of 5 μM MTKI, in 6 replicates for each condition. In this panel, 13 cell lines were defined as responder cell lines (IC50<3 μM; cell lines are ordered according to increasing IC50 in Example 1, whereas 14 cell lines are classified as ‘non-responder’ cell lines (IC50>10 μM). Intermediary cell lines and cell lines with highly variable IC50 measurements were omitted from the analysis. The experiment included the highly responsive H3255 lung cancer cell line, which overexpresses mutant EGFR L858R. This mutant variant is highly responsive to MTKI, which is an ATP-competitive compound that binds to the active conformation of EGFR (similar to erlotinib and gefitinib). Accordingly, the most profound changes induced by MTKI in lysate kinase activity can be observed for this highly responsive cell line. […]

xenograft tumors [2] = assay: Response of subcutaneous xenograft tumors to MTKI in vivo; set-up: species or system nude immuno-compromised mice; key: R: A responder is predicted when minimally 4 peptides have a ratio <0.8; NR = Non-Responder to MTKI
Protocol: (§1) To explore whether a similar approach allows for the classification of responder and non-responder tumors, the same strategy as above was applied to 12 different xenograft tumors, which were subcutaneously grown in nude immuno-compromised mice from human cancer cell lines. […] Lysates were made from homogenized frozen tumor blocks and analyzed in the absence or presence of 5 μM MTKI, as before.

xenograft tumors [3] = assay: as above; set-up: species or system nude immuno-compromised mice; details: for response status: response to MTKI in vivo
Protocol: as §1

xenograft tumors [4] = assay: as above; set-up: species or system nude immuno-compromised mice; key: R = Responder to MTKI; NR = Non-Responder to MTKI
Protocol: as §1

EGFR L858R = EGFR L858R (Homo sapiens, UniProt P00533, L858R); assay: IC50 on mutant EGFR; type: biochemical
EGFR L858R, sequence (P00533 25-1210 L858R): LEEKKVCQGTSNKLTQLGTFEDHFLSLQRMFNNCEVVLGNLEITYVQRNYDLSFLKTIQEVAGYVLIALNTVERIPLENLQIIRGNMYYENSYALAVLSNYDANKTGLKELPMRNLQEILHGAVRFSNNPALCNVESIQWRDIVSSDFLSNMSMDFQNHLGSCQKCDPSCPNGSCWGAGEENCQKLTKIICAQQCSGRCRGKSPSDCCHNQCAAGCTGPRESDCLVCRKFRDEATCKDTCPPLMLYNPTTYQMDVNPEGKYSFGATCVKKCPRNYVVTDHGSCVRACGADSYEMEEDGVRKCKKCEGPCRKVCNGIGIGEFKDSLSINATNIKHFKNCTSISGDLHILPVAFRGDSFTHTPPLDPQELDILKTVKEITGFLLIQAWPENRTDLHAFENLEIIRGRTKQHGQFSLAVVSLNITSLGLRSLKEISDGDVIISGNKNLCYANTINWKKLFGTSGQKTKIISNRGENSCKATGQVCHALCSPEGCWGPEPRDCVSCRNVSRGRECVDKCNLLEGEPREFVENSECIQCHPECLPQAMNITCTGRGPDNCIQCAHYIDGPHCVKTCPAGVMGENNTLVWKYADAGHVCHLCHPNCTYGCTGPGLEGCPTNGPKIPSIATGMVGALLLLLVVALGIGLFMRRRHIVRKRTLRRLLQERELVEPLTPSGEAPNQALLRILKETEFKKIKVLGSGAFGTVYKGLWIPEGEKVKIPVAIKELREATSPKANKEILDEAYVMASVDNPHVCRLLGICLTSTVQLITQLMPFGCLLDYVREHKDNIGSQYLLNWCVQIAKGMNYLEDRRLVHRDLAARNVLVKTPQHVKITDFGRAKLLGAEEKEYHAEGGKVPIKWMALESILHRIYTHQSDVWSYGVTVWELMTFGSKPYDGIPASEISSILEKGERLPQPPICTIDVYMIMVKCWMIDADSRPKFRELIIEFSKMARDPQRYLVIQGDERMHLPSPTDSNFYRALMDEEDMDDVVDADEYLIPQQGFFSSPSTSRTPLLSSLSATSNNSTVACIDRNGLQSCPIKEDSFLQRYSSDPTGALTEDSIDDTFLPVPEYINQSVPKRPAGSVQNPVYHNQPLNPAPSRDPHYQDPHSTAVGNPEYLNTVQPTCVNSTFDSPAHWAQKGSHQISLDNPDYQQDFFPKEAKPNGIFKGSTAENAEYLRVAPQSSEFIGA

In the case of `COc1cc2ncnc3c2cc1OCCCCCN(C)Cc1ccc(Br)cc1N3` [MTKI, 4,6-ethanediylidenepyrimido[4,5-b][6,1,12]benzoxadiazacyclopentadecine, 17-bromo-8,9,10,11,12,13,14,19-octahydro-20-methoxy-13-methyl-], the response status ([1]; GTL16 cell line) is reported as “NR”, the response status ([1]; MOLT4 cell line) is reported as “NR” and the response status (xenograft tumors [2]; H441 xenograft tumor) is reported as “NR”. For the same molecule, the response status (xenograft tumors [2]; H460 xenograft tumor) was “NR”, the response status (xenograft tumors [2]; H1703 xenograft tumor) was “NR” and the response status (xenograft tumors [2]; HT29 xenograft tumor) was “NR”. For the same molecule, the response status (xenograft tumors [2]; PC3 xenograft tumor) was “NR”, the response status (xenograft tumors [2]; SKOV3 xenograft tumor) was “NR” and the response status (xenograft tumors [2]; U87MG xenograft tumor) was “NR”. For the same molecule, the response status (xenograft tumors [3]; A431 xenograft tumor) was “R”, the response status (xenograft tumors [3]; BT474 xenograft tumor) was “R” and the “responsiveness of xenograft tumors in vivo” value (from here on “responsiveness”) (xenograft tumors [3]; DU145, SUM149 and BT474 tumors) was “potent inhibition of tumor growth”. For the same molecule, the response status (xenograft tumors [3]; DU145 xenograft tumor) was “R”, the response status (xenograft tumors [3]; H322 xenograft tumor) was “R” and the “responsiveness” value (xenograft tumors [3]; H460 and H441, HT29, PC3, SKOV3, H1703 tumors) was “non-responsive”. The “responsiveness” value (xenograft tumors [3]; H3255, A431 and H322 tumors) was “abrupt tumor regression”, the response status (xenograft tumors [3]; H3255 xenograft tumor) was “R” and the response status (xenograft tumors [3]; SUM149 xenograft tumor) was “R”. The response status (xenograft tumors [4]; A431 xenograft tumor) was “R”, the response status (xenograft tumors [4]; BT474 xenograft tumor) was “R” and the response status (xenograft tumors [4]; DU145 xenograft tumor) was “R”. For the same molecule, the response status (xenograft tumors [4]; H322 xenograft tumor) was “R”, the response status (xenograft tumors [4]; H3255 xenograft tumor) was “R” and the response status (xenograft tumors [4]; SUM149 xenograft tumor) was “R”. For the same molecule, the “IC50 on EGFR 1858R compared to Tarceva” value (EGFR L858R) was “lower IC50”.
